Literature values as cited in patent US20090318295A1, “Solid herbicidal formulation of N-(phosphono-methyl)glycine and process for its preparation” (priority 2002, published 2009).
Values after ≈ are worked out from the molar mass of the structure shown.

## O=C(O)CNCP(=O)(O)O [Glyphosate, N-(phosphonomethyl)glycine]
  solubility in water: 12 mg/mL (≈ 71 mM)
